The source of these data is patent publication US11591350B2, “Modulators of cystic fibrosis transmembrane conductance regulator” (Vertex Pharmaceuticals Incorporated, priority 2019, dated 2023).

In the experiment the target is CFTR (Homo sapiens, UniProt P13569). As to the kind of experiment: Membrane potential dye assay (FLIPR Tetra) of CFTR-mediated chloride transport in enteroid cells. Format: cell-based. Particulars: human intestinal epithelial enteroid cells; test compound 18-24 hours; acute 10 μM forskolin and 300 nM Compound III. An excerpt: Enteroid Cell Harvesting and Seeding
Sequence of CFTR (P13569 with tags, fused parts or gaps DEL508-508): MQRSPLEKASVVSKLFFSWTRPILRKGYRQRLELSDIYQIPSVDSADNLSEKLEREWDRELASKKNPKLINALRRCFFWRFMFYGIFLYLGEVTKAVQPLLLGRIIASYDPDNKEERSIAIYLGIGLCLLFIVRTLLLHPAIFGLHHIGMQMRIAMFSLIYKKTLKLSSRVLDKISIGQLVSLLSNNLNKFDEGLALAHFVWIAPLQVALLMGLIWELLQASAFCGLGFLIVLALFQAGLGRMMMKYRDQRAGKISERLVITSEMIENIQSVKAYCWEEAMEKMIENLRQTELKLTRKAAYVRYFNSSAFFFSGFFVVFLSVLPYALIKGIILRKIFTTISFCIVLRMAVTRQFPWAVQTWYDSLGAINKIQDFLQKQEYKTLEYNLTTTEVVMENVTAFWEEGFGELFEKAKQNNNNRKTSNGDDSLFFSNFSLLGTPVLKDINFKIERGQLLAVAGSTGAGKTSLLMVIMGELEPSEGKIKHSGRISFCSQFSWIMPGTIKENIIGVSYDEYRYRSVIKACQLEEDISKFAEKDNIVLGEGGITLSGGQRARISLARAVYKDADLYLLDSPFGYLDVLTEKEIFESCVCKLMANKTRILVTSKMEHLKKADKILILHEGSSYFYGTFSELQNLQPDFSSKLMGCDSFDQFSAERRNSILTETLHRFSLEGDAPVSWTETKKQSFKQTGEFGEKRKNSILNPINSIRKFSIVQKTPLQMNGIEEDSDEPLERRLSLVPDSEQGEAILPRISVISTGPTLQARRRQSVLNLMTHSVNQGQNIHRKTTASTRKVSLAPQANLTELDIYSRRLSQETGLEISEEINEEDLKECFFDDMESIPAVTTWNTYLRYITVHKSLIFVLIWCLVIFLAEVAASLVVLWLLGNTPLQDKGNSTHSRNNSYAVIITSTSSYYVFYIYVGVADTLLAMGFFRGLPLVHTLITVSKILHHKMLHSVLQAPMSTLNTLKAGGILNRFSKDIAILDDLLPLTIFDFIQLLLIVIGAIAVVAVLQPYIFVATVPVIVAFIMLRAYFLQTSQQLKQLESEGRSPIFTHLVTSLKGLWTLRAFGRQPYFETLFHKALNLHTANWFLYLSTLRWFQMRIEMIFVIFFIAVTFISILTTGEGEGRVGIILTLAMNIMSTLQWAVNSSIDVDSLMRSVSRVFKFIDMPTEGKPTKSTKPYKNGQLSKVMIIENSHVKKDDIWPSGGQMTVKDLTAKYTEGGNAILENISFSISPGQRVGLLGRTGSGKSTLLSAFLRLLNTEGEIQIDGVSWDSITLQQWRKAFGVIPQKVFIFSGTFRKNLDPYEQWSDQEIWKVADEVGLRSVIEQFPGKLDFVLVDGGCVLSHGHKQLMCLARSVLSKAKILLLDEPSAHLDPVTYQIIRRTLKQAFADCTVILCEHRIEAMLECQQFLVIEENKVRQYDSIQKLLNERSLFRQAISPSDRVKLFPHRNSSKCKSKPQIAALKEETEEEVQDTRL
Membrane Potential Dye Assay
As usually defined, the EC50 is the midpoint of the concentration-response curve. A low value points to a more potent agent. Turning to `CC1(C)C[C@@H]2CCCNc3cccc(n3)S(=O)(=O)NC(=O)c3ccc(-n4ccc(OC[Si](C)(C)C5(C(F)(F)F)CC5)n4)nc3N1C2` [Compound (1-1), (14S)-8-[3-({dimethyl[1-(trifluoromethyl)cyclopropyl]silyl}methoxy)-1H-pyrazol-1-yl]-12,12-dimethyl-2λ^6-thia-3,9,11,18,23-pentaazatetracyclo[17.3.1.111,14.05,10]tetracosa-1(22),5(10),6,8,19(23),20-hexaene-2,2,4-trione], the EC50 was < 1000 nM. To `CC1(C)C[C@@H]2CCCNc3cccc(n3)S(=O)(=O)NC(=O)c3ccc(-n4ccc(OC[Si](C)(C)C)n4)nc3N1C2` [Compound (1-8), (14S)-12,12-dimethyl-8-{3-[(trimethylsilyl)methoxy]-1H-pyrazol-1-yl}-2λ^6-thia-3,9,11,18,23-pentaazatetracyclo[17.3.1.111,14.05,10]tetracosa-1(22),5(10),6,8,19(23),20-hexaene-2,2,4-trione] belongs < 1000 nM; to `CC1(C)C[C@@H]2CCCNc3cccc(n3)S(=O)(=O)NC(=O)c3ccc(-n4ccc(OC[Si](C)(C)C(C)(C)C)n4)nc3N1C2` [Compound (1-2), (14S)-8-{3-[(tert-butyldimethylsilyl)methoxy]-1H-pyrazol-1-yl}-12,12-dimethyl-2λ^6-thia-3,9,11,18,23-pentaazatetracyclo[17.3.1.111,14.05,10]tetracosa-1(23),5(10),6,8,19,21-hexaene-2,2,4-trione], < 1000 nM. To `CC(C)(C)CC[Si](C)(C)c1ccn(-c2ccc3c(n2)N2C[C@@H](CCCNc4cccc(n4)S(=O)(=O)NC3=O)CC2(C)C)n1` [Compound (1-4), (14S)-8-{3-[(3,3-dimethylbutyl)dimethylsilyl]-1H-pyrazol-1-yl}-12,12-dimethyl-2λ^6-thia-3,9,11,18,23-pentaazatetracyclo[17.3.1.111,14.05,10]tetracosa-1(23),5(10),6,8,19,21-hexaene-2,2,4-trione] belongs < 1000 nM.

With `CC1(C)C[C@@H]2CCCNc3cccc(n3)S(=O)(=O)NC(=O)c3ccc(-n4ccc(OCCC5([Si](C)(C)C)CC5)n4)nc3N1C2` [(1-3)], the EC50 was < 1000 nM. For `CC1(C)C[C@@H]2CCCNc3cccc(n3)S(=O)(=O)NC(=O)c3ccc(-n4ccc(OCC[Si](C)(C)C)n4)nc3N1C2` [Compound (1-7), (14S)-12,12-dimethyl-8-{3-[2-(trimethylsilyl)ethoxy]-1H-pyrazol-1-yl}-2λ^6-thia-3,9,11,18,23-pentaazatetracyclo[17.3.1.111,14.05,10]tetracosa-1(22),5(10),6,8,19(23),20-hexaene-2,2,4-trione], the EC50 was < 1000 nM. To `CC1(C)C[C@@H]2CCCNc3cccc(n3)S(=O)(=O)NC(=O)c3ccc(-n4ccc(OCCC[Si](C)(C)C)n4)nc3N1C2` [Compound (1-6), (14S)-12,12-dimethyl-8-{3-[3-(trimethylsilyl)Propoxy]-1H-pyrazol-1-yl}-2λ^6-thia-3,9,11,18,23-pentaazatetracyclo[17.3.1.111,14.05,10]tetracosa-1(22),5(10),6,8,19(23),20-hexaene-2,2,4-trione] belongs < 1000 nM; to `CC1(C)C[C@@H]2CCCNc3cccc(n3)S(=O)(=O)NC(=O)c3ccc(-n4ccc(O[CH2][Ge]([CH3])([CH3])[CH3])n4)nc3N1C2` [Compound (2-1), (14S)-12,12-dimethyl-8-{3-[(trimethylgermyl)methoxy]-1H-pyrazol-1-yl}-2λ^6-thia-3,9,11,18,23-pentaazatetracyclo[17.3.1.111,14.05,10]tetracosa-1(23),5(10),6,8,19,21-hexaene-2,2,4-trione], < 1000 nM.
